Test results from US20250387486A1, “LIPID COMPOSITION” (STEMIRNA THERAPEUTICS CO., LTD., priority 2022, published 2025).

System: B16F10 tumor-bearing mice
Test: Luciferase expression tumor/whole body after intratumoral injection, B16F10 tumor-bearing mice
Format: in vivo, C57BL/6 mice
Conditions: for LNP (tumor/whole body)% ratio of luciferase expression: cationic lipid:DSPC:PEG-DMG:cholesterol 50:10:1.5:38.5 (groups 1-1 to 1-3); for LNP (tumor/whole body)% ratio of luciferase expression / LPP (tumor/whole body)% ratio of luciferase expression: 5 μg luciferase mRNA intratumoral, 6 hours; for LPP (tumor/whole body)% ratio of luciferase expression: cationic lipid:DSPC:PEG-DMG:cholesterol 50:10:1.5:38.5 (groups 1-4 to 1-6)
Method: (§1) Female C57BL/6 mice (Beijing Vital River Laboratory Animal Technology Co., Ltd.) of 6 weeks of age with a weight of around 20 g were used, and each mouse was injected subcutaneously unilaterally with 1×10^6 murine-derived cutaneous melanoma cells, B16F10 cells. When tumors grew to a size of about 450 mm^3, B16F10 tumor-bearing mice were divided into 6 groups (1-1, 1-2, 1-3, 1-4, 1-5, and 1-6 groups, with 3 mice per group), and LPP and LNP solutions (50 μL) containing 5 μg of luciferase mRNA prepared by the prescriptions were respectively taken and administered to the mice by intratumoral injection. 6 hours after the administration, mice were injected intraperitoneally with a 150 mg/kg […] substrate. The bioluminescence was measured in a Xenogen IVIS-200 imaging system 7 minutes after substrate injection to evaluate the expression and distribution of the luciferase mRNA in the mice.
as §1, with “into 8” for “into 6”, “groups (2-1, 2-2, 2-3, 2-4, 2-5, 2-6, 2-7,” for “groups (1-1, 1-2, 1-3, 1-4, 1-5,”, “and 2-8” for “and 1-6”, “and” for “and LPP and LNP”
as §1, with “mm^3, the” for “mm^3, B16F10 tumor-bearing”, “into 8” for “into 6”, “groups (3-1, 3-2, 3-3, 3-4, 3-5, 3-6, 3-7, 3-8” for “groups (1-1, 1-2, 1-3, 1-4, 1-5, and 1-6”, “and” for “and LPP and LNP”

SMILES | LNP (tumor/whole body)% ratio of luciferase expression [%] | LPP (tumor/whole body)% ratio of luciferase expression [%] | ratio of luciferase expression of tumor/whole body, rank among cationic lipids (Example 3, versus ALC-0315 and SW-II-127)
CCCCCCCCC(CCCCCC)C(=O)OCCCCCCN(CCCCO)CCCCCCOC(=O)C(CCCCCC)CCCCCCCC (stereo not shown) [ALC-0315, reference compound] | 4.9 | 11.2 ± 7.9 | –
CCCCCCCCC(CCCCCCCC)OC(=O)CCCCCCCN(CCO)CCCCCCC(=O)OCc1ccc(CCCCCC)cc1 [SW-II-127] | 15.0 ± 18.5 | 25.7 ± 15.1 | –
CCCCCCCCCOC(=O)CCCCCCCN(CCO)CCCCCCCC(=O)OCCCc1ccc(CCCCC)c(CCCCC)c1 [SW-II-135-1] | 43.6 ± 34.7 | 58.6 ± 36.4 | highest ratio of luciferase expression of tumor/whole body
